SMILES strings stand for the structures. pKi: −log10 of the molar value.

T1 sequence (Q9Y5N1 with tags, fused parts or gaps): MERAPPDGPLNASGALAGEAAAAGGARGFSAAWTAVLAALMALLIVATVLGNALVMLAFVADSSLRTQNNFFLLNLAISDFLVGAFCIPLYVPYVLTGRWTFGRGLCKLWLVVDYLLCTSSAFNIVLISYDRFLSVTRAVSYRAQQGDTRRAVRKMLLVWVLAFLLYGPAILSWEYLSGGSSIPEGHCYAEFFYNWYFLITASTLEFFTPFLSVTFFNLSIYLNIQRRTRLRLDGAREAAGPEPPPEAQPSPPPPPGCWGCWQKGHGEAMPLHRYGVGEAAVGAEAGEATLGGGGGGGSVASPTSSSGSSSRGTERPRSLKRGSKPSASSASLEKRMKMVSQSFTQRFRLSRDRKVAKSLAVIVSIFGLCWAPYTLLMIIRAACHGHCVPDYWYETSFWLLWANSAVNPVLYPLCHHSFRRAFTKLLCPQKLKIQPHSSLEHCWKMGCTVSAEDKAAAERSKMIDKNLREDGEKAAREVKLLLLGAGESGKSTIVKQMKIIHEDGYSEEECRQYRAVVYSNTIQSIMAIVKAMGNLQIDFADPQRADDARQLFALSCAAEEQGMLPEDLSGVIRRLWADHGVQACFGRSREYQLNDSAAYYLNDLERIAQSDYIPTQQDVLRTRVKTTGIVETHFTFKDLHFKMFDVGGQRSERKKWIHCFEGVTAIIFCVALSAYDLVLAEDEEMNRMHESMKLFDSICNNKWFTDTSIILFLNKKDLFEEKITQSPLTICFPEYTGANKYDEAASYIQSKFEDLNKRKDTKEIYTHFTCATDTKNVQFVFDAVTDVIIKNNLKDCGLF

One assay has as its target T1, chimeric human H3 receptor (Homo sapiens, UniProt Q9Y5N1).
T1 construct: made in house; host or cells: Sf9 insect cells (baculovirus); P2 membrane preparation
The assay is described as follows: Chimeric human H3 receptor GTP binding assay (agonist-stimulated GTP-gamma35S binding, Example 7). The assay is classed as biochemical. The settings on record: Table II "Ki", symbol *; assay of Example 7. The gist of the method: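 Sf9 membranes co-expressing chimeric human H3 receptor and heterotrimeric G-protein, 35 μg/tube, in pH 7.4 Tris buffer with 10 μM GDP. Test compounds (10^−10–10^−6 M) competed against 1 μM histamine, […] GTP-gamma35S, 60 min at room temperature. Filter-bound radioactivity counted; IC50 converted to Ki by Cheng-Prusoff. Agonism/inverse agonism tested without histamine (EC50).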
For the compound `CC(C)Oc1cccc(-c2ccc3c(c2)CCN(CC(=O)N2CCN(C4CCC4)CC2)C3)c1` [Compound 513, 2-[2-(4-cyclobutylpiperazin-1-yl)-2-oxoethyl]-6-(3-isopropoxyphenyl)-1,2,3,4-tetrahydroisoquinoline], the pKi was more than 6.00.
On the same count and under the same terms, the figure for `CC1CCCC1N1CCN(C(=O)CN2CCc3cc(-c4cncnc4)ccc3C2)CC1` (stereo not shown) [Compound 613, 2-{2-[4-(2-methylcyclopentyl)piperazin-1-yl]-2-oxoethyl}-6-pyrimidin-5-yl-1,2,3,4-tetrahydroisoquinoline] is more than 6.00; for `CN(c1ccc2c(n1)CCN(CC(=O)N1CCN(C3CCC3)CC1)C2)C1CCCCC1` [Compound 677, 6-[2-(4-cyclobutylpiperazin-1-yl)-2-oxoethyl]-N-cyclohexyl-N-methyl-5,6,7,8-tetrahydro-1,6-naphthyridin-2-amine] it is more than 6.00; for `C[C@@H]1CN(C(=O)CN2CCc3cc(-c4cncnc4)ccc3C2)CCN1C1CCCCC1` [Compound 617, 2-{2-[(3R)-4-cyclohexyl-3-methylpiperazin-1-yl]-2-oxoethyl}-6-pyrimidin-5-yl-1,2,3,4-tetrahydroisoquinoline] it is more than 6.00.
Regarding `COc1ccc(-c2ccc3c(c2)CCN(CC(=O)N2CCN(C4CCCCC4)CC2)C3)cc1OC` [Compound 526, 2-[2-(4-cyclohexylpiperazin-1-yl)-2-oxoethyl]-6-(3,4-dimethoxyphenyl)-1,2,3,4-tetrahydroisoquinoline], the negative-log Ki (pKi) was more than 6.00.

Still in this assay, the particulars now being: Table II; "*" = Ki in assay of Example 7 less than 1 micromolar.
Consider `O=C(CN1CCc2nn(-c3ncccn3)cc2C1)N1CCN(C2CCC2)CC1` [Compound 248, 5-[2-(4-cyclobutylpiperazin-1-yl)-2-oxoethyl]-2-pyrimidin-2-yl-4,5,6,7-tetrahydro-2H-pyrazolo[4,3-c]pyridine], for which the pKi was more than 6.00.
For the compound `CC(C)[C@@H]1CN(C(=O)CN2CCc3cc(-c4cncnc4)ccc3C2)CCN1C1CCC1` [Compound 189, 2-{2-[(3R)-4-cyclobutyl-3-isopropylpiperazin-1-yl]-2-oxoethyl}-6-pyrimidin-5-yl-1,2,3,4-tetrahydroisoquinoline], the pKi is more than 6.00.
Turning to `C[C@@H](O)c1ccc2c(c1)CCN(CC(=O)N1CCN(C3CCC3)CC1)C2` (stereo in doubt) [Compound 253, 1-{2-[2-(4-cyclobutylpiperazin-1-yl)-2-oxoethyl]-1,2,3,4-tetrahydroisoquinolin-6-yl}ethanol], the pKi was more than 6.00.
On the same count and under the same terms, then `N#Cc1ccc(-n2ncc3c2CCN(CC(=O)N2CCN(C4CCC4)CC2)C3)nn1` [Compound 215, 6-{5-[2-(4-cyclobutylpiperazin-1-yl)-2-oxoethyl]-4,5,6,7-tetrahydro-1H-pyrazolo[4,3-c]pyridin-1-yl}pyridazine-3-carbonitrile], with more than 6.00; and `O=C(CN1CCc2sc(-c3cncnc3)cc2C1)N1CCN(C2CCC2)CC1` [Compound 269, 5-[2-(4-cyclobutylpiperazin-1-yl)-2-oxoethyl]-2-pyrimidin-5-yl-4,5,6,7-tetrahydrothieno[3,2-c]pyridine], with more than 6.00.
On the same count and under the same terms, the figure for `O=C(CN1CCc2c(cnn2-c2cccc(F)c2)C1)N1CCN(C2CCC2)CC1` [Compound 235, 5-[2-(4-cyclobutylpiperazin-1-yl)-2-oxoethyl]-1-(3-fluorophenyl)-4,5,6,7-tetrahydro-1H-pyrazolo[4,3-c]pyridine] is more than 6.00.
On to `O=C(CN1CCc2c(cnn2-c2ccc(F)cc2)C1)N1CCN(C2CCC2)CC1` [Compound 234, 5-[2-(4-cyclobutylpiperazin-1-yl)-2-oxoethyl]-1-(4-fluorophenyl)-4,5,6,7-tetrahydro-1H-pyrazolo[4,3-c]pyridine], for which the pKi was more than 6.00.
The same measure, in the same setting: the figure for `Cn1cc(-c2ccc3c(c2)CCN(CC(=O)N2CCN(C4CCC4)CC2)C3)ccc1=O` [Compound 192, 5-{2-[2-(4-cyclobutylpiperazin-1-yl)-2-oxoethyl]-1,2,3,4-tetrahydroisoquinolin-6-yl}-1-methylpyridin-2(1H)-one] is more than 6.00.
In the case of `CC(=O)c1ccc2c(c1)CCN(CC(=O)N1CCN3CCCCC3C1)C2` (stereo not shown) [Compound 154, 1-{2-[2-(octahydro-2H-pyrido[1,2-a]pyrazin-2-yl)-2-oxoethyl]-1,2,3,4-tetrahydroisoquinolin-6-yl}ethanone], the pKi was more than 6.00.
As for `CC1CN(C(=O)CN2CCc3nc(-c4cscn4)sc3C2)CCN1C1CCC1` (stereo not shown) [Compound 113, 5-[2-(4-cyclobutyl-3-methylpiperazin-1-yl)-2-oxoethyl]-2-(1,3-thiazol-4-yl)-4,5,6,7-tetrahydro[1,3]thiazolo [5,4-c]pyridine], the pKi was more than 6.00.
Take `CC(=O)c1ccc2c(c1)CCN(CC(=O)N1CCN(C3CCCC3C)CC1)C2` (stereo not shown) [Compound 206, 1-(2-{2-[4-(2-methylcyclopentyl)piperazin-1-yl]-2-oxoethyl}-1,2.3,4-tetrahydroisoquinolin-6-yl)ethanone]: the negative-log Ki (pKi) is more than 6.00.
The same measure, in the same setting: then `CCC1CCC[C@H]2CN(C(=O)CN3CCc4cc(-n5ccc(C(F)(F)F)n5)ccc4C3)CCN12` (stereo in doubt) [Compound 161, 6-ethyl-2-({6-[3-(trifluoromethyl)-1H-pyrazol-1-yl]-3,4-dihydroisoquinolin-2(1H)-yl}acetyl)octahydro-2H-pyrido[1,2-a]pyrazine], with more than 6.00; and `Cc1ccc(-n2cc3c(n2)CN(CC(=O)N2CCN(C4CCC4)CC2)CC3)nn1` [Compound 264, 6-[2-(4-cyclobutylpiperazin-1-yl)-2-oxoethyl]-2-(6-methylpyridazin-3-yl)-4,5,6,7-tetrahydro-2H-pyrazolo[3,4-c]pyridine], with more than 6.00.
`CC1CCC[C@H]2CN(C(=O)CN3CCc4cc(-n5cccn5)ccc4C3)CCN12` (stereo in doubt) [Compound 152, 6-methyl-2-{[6-(1H-pyrazol-1-yl)-3,4-dihydroisoquinolin-2(1H)-yl]acetyl}octahydro-2H-pyrido[1,2-a]pyrazine]: the negative logarithm of the Ki (pKi) was more than 6.00.

The same assay, now with this note: Table II; assay of Example 7.
As to `O=C(CN1CCc2nn(-c3ccc4nncn4n3)cc2C1)N1CCN(C2CCC2)CC1` [Compound 688, 6-{5-[2-(4-cyclobutylpiperazin-1-yl)-2-oxoethyl]-4,5,6,7-tetrahydro-2H-pyrazolo[4,3-c]pyridin-2-yl}[1,2,4]triazolo[4,3-b]pyridazine], the negative-log Ki (pKi) is more than 6.00.
Still for that read-out and setting: the figure for `Cc1nnc2ccc(-n3cc4c(n3)CCN(CC(=O)N3CCN(C5CCC5)CC3)C4)nn12` [Compound 689, 6-{5-[2-(4-cyclobutylpiperazin-1-yl)-2-oxoethyl]-4,5,6,7-tetrahydro-2H-pyrazolo[4,3-c]pyridin-2-y1}-3-methyl[1,2,4]triazolo [4,3-b]pyridazine] is more than 6.00.

The same assay, now with this note: assay of Example 7; "*" in Ki of Table II.
For `COc1cc(F)c(-c2nc3c(s2)CN(CC(=O)N2CCN(C4CCC4)CC2)CC3)cc1F` [Compound 323, 5-[2-(4-cyclobutylpiperazin-1-yl)-2-oxoethyl]-2-(2,5-difluoro-4-methoxyphenyl)-4,5,6,7-tetrahydro[1,3]thiazolo [5,4-c]pyridine], the pKi is more than 6.00.
On the same count and under the same terms, the figure for `O=C(CN1CCc2nc(-c3ccc(Cl)cc3)sc2C1)N1CCN(C2CCC2)CC1` [Compound 296, 2-(4-chlorophenyl)-5-[2-(4-cyclobutylpiperazin-1-yl)-2-oxoethyl]-4,5,6,7-tetrahydro[1,3]thiazolo [5,4-c]pyridine] is more than 6.00.
Same read-out and setting: then `O=C(CN1CCc2nc(-c3ccc(C(F)(F)F)cc3)sc2C1)N1CCN(C2CCC2)CC1` [Compound 369, 5-[2-(4-cyclobutylpiperazin-1-yl)-2-oxoethyl]-2-[4-(trifluoromethyl)phenyl]-4,5,6,7-tetrahydro[1,3]thiazolo [5,4-c]pyridine], with more than 6.00; and `O=C(CN1CCc2nc(C(F)(F)F)ncc2C1)N1CCN(C2CCC2)CC1` [Compound 292, 6-[2-(4-cyclobutylpiperazin-1-yl)-2-oxoethyl]-2-(trifluoromethyl)-5,6,7,8-tetrahydropyrido[4,3-d]pyrimidine], with more than 6.00.
On the same count and under the same terms, the figure for `CCc1cccc(-c2nc3c(s2)CN(CC(=O)N2CCN(C4CCC4)CC2)CC3)c1` [Compound 313, 5-[2-(4-cyclobutylpiperazin-1-yl)-2-oxoethyl]-2-(3-ethylphenyl)-4,5,6,7-tetrahydro[1,3]thiazolo [5,4-c]pyridine] is more than 6.00.
As for `COc1ccccc1-c1nc2c(s1)CN(CC(=O)N1CCN(C3CCC3)CC1)CC2` [Compound 336, 5-[2-(4-cyclobutylpiperazin-1-yl)-2-oxoethyl]-2-(2-methoxyphenyl)-4,5,6,7-tetrahydro[1,3]thiazolo [5,4-c]pyridine], the pKi was more than 6.00.
The same measure, in the same setting: then `CC(C)c1ccc(-c2nc3c(s2)CN(CC(=O)N2CCN(C4CCC4)CC2)CC3)cc1` [Compound 307, 5-[2-(4-cyclobutylpiperazin-1-yl)-2-oxoethyl]-2-(4-isopropylphenyl)-4,5,6,7-tetrahydro[1,3]thiazolo [5,4-c]pyridine], with more than 6.00; and `O=C(CN1CCc2c(cnn2-c2cccnn2)C1)N1CCN(C2CCC2)CC1` [Compound 285, 5-[2-(4-cyclobutylpiperazin-1-yl)-2-oxoethyl]-1-pyridazin-3-yl-4,5,6,7-tetrahydro-1H-pyrazolo[4,3-c]pyridine], with more than 6.00; and `COc1ccc(-c2nc3c(s2)CN(CC(=O)N2CCN(C4CCC4)CC2)CC3)cc1` [Compound 327, 5-[2-(4-cyclobutylpiperazin-1-yl)-2-oxoethyl]-2-(4-methoxyphenyl)-4,5,6,7-tetrahydro[1,3]thiazolo [5,4-c]pyridine], with more than 6.00.
On the same count and under the same terms, then `COc1cccc(-c2nc3c(s2)CN(CC(=O)N2CCN(C4CCC4)CC2)CC3)c1` [Compound 315, 5-[2-(4-cyclobutylpiperazin-1-yl)-2-oxoethyl]-2-(3-methoxyphenyl)-4,5,6,7-tetrahydro[1,3]thiazolo [5,4-c]pyridine], with more than 6.00.
